Test results taken from US20260317324A1, “BIFUNCTIONAL COMPOUNDS FOR DEGRADING BRAF VIA UBIQUITIN PROTEOSOME PATHWAY” (Nurix Therapeutics, Inc., priority 2023, published 2026).

What was measured:
Assay type in all cases: cell-based
[1] = molecular target: T1, BRAF V600E (Homo sapiens, UniProt P15056, V600E); assay: BRAF HiBiT degradation assay, C-terminal HiBiT-tagged BRAF V600E A375 cells (clone 1F10), Nano-Glo HiBiT Lytic assay; conditions: for Dmax: A-375
T1 construct: endogenous C-terminal HiBiT fusion tag on BRAF V600E allele; endogenous in cells; host or cells: A375 clone 1F10 (CRISPR-Cas9 knock-in of the HiBiT tag; parental A375 from ATCC)
T1 sequence (P15056 whole entry V600E, the tested form may be a part): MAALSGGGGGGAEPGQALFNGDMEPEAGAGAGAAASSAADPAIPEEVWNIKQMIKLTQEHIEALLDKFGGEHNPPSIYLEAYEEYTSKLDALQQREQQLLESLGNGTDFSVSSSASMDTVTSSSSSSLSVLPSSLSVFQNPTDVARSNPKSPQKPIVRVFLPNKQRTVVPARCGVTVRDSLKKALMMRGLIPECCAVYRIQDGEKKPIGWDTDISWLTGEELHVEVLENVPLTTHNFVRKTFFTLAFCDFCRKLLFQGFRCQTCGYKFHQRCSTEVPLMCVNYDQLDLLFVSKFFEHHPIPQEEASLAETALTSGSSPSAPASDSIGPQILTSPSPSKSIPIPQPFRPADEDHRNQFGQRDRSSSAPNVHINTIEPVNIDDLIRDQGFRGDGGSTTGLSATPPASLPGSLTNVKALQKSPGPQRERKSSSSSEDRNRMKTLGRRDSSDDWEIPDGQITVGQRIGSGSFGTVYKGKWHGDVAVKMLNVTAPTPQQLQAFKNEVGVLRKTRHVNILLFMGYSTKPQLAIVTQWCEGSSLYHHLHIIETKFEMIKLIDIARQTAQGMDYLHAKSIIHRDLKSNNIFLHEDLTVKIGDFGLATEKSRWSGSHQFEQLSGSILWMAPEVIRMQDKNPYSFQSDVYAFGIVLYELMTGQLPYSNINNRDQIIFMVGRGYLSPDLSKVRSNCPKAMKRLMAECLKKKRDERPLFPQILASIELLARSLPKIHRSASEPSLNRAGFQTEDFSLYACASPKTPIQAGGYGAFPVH
Procedure, shortened: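 A375 cells (clone 1F10, endogenous C-terminal HiBiT on BRAF V600E) were seeded at 10,000 cells/well, grown 24 h, then dosed in duplicate with an 11-point series from 1 μM to 0.01 nM (0.2% DMSO). Nano-Glo HiBiT lytic luminescence was normalised to DMSO and wildtype-A375 background; DC50 was read at 50% protein remaining, alongside observed Dmax.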

[2] = molecular target: T2, BRAF G466V (Homo sapiens, UniProt P15056, G466V); assay: BRAF HiBiT degradation assay, C-terminal HiBiT-tagged BRAF G466V overexpressed in HCT-116 BRAF−/− cells (clone 8), Nano-Glo HiBiT Lytic assay
T2 construct: Horizon Discovery (HCT-116 BRAF−/− cells); host or cells: HCT-116 BRAF−/− cells, clone 8, lentiviral transduction
T2 sequence (P15056 whole entry G466V): as the sequence (P15056 whole entry V600E, the tested form may be a part) above, with G466V, E600V counted along it
Procedure, shortened: (§1)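 HCT-116 BRAF−/− clones stably overexpressing C-terminal HiBiT-tagged mutant BRAF were seeded 24 h before treatment with an 11-point half-log series from 1 μM to 0.01 nM (0.2% DMSO final). Remaining protein was read by HiBiT lytic luminescence, with DMSO and wildtype-cell controls. DC50 was taken as the fitted concentration at 50% remaining protein; observed Dmax is reported relative to DMSO.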

[3] = molecular target: T3, BRAF G469A (Homo sapiens, UniProt P15056, G469A); assay: BRAF HiBiT degradation assay, C-terminal HiBiT-tagged BRAF G469A overexpressed in HCT-116 BRAF−/− cells (clone 34), Nano-Glo HiBiT Lytic assay
T3 construct: Horizon Discovery (HCT-116 BRAF−/− cells); host or cells: HCT-116 BRAF−/− cells, clone 34, lentiviral transduction
T3 sequence (P15056 whole entry G469A): as the sequence (P15056 whole entry V600E, the tested form may be a part) above, with G469A, E600V counted along it
Procedure, shortened: as §1

[4] = molecular target: T4, BRAF D594G (Homo sapiens, UniProt P15056, D594G); assay: BRAF HiBiT degradation assay, C-terminal HiBiT-tagged BRAF D594G overexpressed in HCT-116 BRAF−/− cells (clone 63), Nano-Glo HiBiT Lytic assay
T4 construct: Horizon Discovery (HCT-116 BRAF−/− cells); host or cells: HCT-116 BRAF−/− cells, clone 63, lentiviral transduction
T4 sequence (P15056 whole entry D594G): as the sequence (P15056 whole entry V600E, the tested form may be a part) above, with D594G, E600V counted along it
Procedure, shortened: as §1

[5] = A375 (BRAF V600E, Class 1), DC50 at 50% degradation
[6] = A375 (BRAF V600E, Class 1), observed Dmax, % protein degraded relative to DMSO control
[7] = BRAF G466V (Class 3), HCT-116 BRAF−/− cells, DC50 at 50% degradation
[8] = BRAF G466V (Class 3), HCT-116 BRAF−/− cells, observed Dmax relative to DMSO control
[9] = BRAF G469A (Class 2), HCT-116 BRAF−/− cells, DC50 at 50% degradation
[10] = BRAF G469A (Class 2), HCT-116 BRAF−/− cells, observed Dmax relative to DMSO control
[11] = BRAF D594G (Class 3), HCT-116 BRAF−/− cells, DC50 at 50% degradation
[12] = BRAF D594G (Class 3), HCT-116 BRAF−/− cells, observed Dmax relative to DMSO control
[13] = A375 (BRAF V600E), DC50 at 50%: fitted conc. at Y=50
[14] = A375 (BRAF V600E), percentage protein degraded at maximal compound effect relative to DMSO
[15] = BRAF G466V, DC50 at 50%: fitted conc. at Y=50
[16] = HCT-116, BRAF G466V, percentage protein degraded at maximal compound effect relative to DMSO
[17] = Class 2, BRAF G469A, DC50 at 50%: fitted conc. at Y=50
[18] = HCT-116, Class 2, BRAF G469A, percentage protein degraded at maximal compound effect relative to DMSO
[19] = BRAF D594G, DC50 at 50%: fitted conc. at Y=50
[20] = HCT-116, BRAF D594G, percentage protein degraded at maximal compound effect relative to DMSO

DC50 [1, 5] [nM]	Dmax [1, 6] [%]	DC50 [2, 7] [nM]	Dmax [2, 8] [%]	DC50 [3, 9] [nM]	Dmax [3, 10] [%]	DC50 [4, 11] [nM]	Dmax [4, 12] [%]	DC50 [1, 13] [nM]	Dmax [1, 14] [%]	DC50 [2, 15] [nM]	Dmax [2, 16] [%]	DC50 [3, 17] [nM]	Dmax [3, 18] [%]	DC50 [4, 19] [nM]	Dmax [4, 20] [%]	SMILES
< 10	> 70	< 10	> 70	10 to 50	30 to 70	50 to 500	30 to 70	–	–	–	–	–	–	–	–	CCCS(=O)(=O)Nc1cc(Cl)cc(-c2cn(-c3ccc(N4CCN(CC5CCN(c6ccc(N7CCC(=O)NC7=O)cc6)CC5)[C@H](C)C4)cc3)nc2-c2ccncc2)c1F [Compound 277, N-[5-chloro-3-(1-{4-[(3R)-4-({1-[4-(2,4-dioxo-1,3-diazinan-1-yl)phenyl]piperidin-4-yl}methyl)-3-methylpiperazin-1-yl]phenyl}-3-(pyridin-4-yl)-1H-pyrazol-4-yl)-2-fluorophenyl]propane-1-sulfonamide]
–	–	–	–	–	–	–	–	< 10	> 70	10 to 50	> 70	50 to 500	30 to 70	10 to 50	30 to 70	CCN(C)S(=O)(=O)Nc1cccc(-c2nc(C)sc2-c2ccnc(Nc3ccc(N4CCN(CC5CCN(c6ccc([C@H]7CCC(=O)NC7=O)cn6)CC5)CC4)cn3)n2)c1F [Compound 27, (3R)-3-{6-[4-({4-[6-({4-[4-(3-{[ethyl(methyl)sulfamoyl]amino}-2-fluorophenyl)-2-methyl-1,3-thiazol-5-yl]pyrimidin-2-yl}amino)pyridin-3-yl]piperazin-1-yl}methyl)piperidin-1-yl]pyridin-3-yl}piperidine-2,6-dione]
–	–	–	–	–	–	–	–	< 10	> 70	< 10	30 to 70	> 500	30 to 70	50 to 500	30 to 70	CCCS(=O)(=O)Nc1cccc(-c2nc(C(C)(C)C)sc2-c2ccnc(Nc3ccc(N4CCN(C(=O)CC5CCN(c6ccc(NC7CCC(=O)NC7=O)cc6)CC5)CC4)c(F)c3)n2)c1F (racemic) [Compound 46, Rac-N-{3-[2-tert-butyl-5-(2-{[4-(4-{2-[1-(4-{[(3R)-2,6-dioxopiperidin-3-yl]amino}phenyl)piperidin-4-yl]acetyl}piperazin-1-yl)-3-fluorophenyl]amino}pyrimidin-4-yl)-1,3-thiazol-4-yl]-2-fluorophenyl}propane-1-sulfonamide]
–	–	–	–	–	–	–	–	< 10	> 70	< 10	> 70	> 500	30 to 70	< 10	30 to 70	CCCS(=O)(=O)Nc1cccc(-c2nc(C3CCN(C(=O)C4CCN(C(=O)CC5CCN(c6ccc(C7CCC(=O)NC7=O)cn6)CC5)CC4)CC3)sc2-c2ccnc(N)n2)c1F (racemic) [Compound 203, Rac-N-{3-[5-(2-aminopyrimidin-4-yl)-2-(1-{1-[2-(1-{5-[(3R)-2,6-dioxopiperidin-3-yl]pyridin-2-yl}piperidin-4-yl)acetyl]piperidine-4-carbonyl}piperidin-4-yl)-1,3-thiazol-4-yl]-2-fluorophenyl}propane-1-sulfonamide]
< 10	> 70	< 10	30 to 70	> 500	30 to 70	< 10	30 to 70	–	–	–	–	–	–	–	–	CCCS(=O)(=O)Nc1cccc(-c2nc(C3CCC4(CC3)CCN(C(=O)C3CCN(c5cccc6c5n(C)c(=O)n6C5CCC(=O)NC5=O)CC3)CC4)sc2-c2ccnc(N)n2)c1F (racemic) [Compound 251, Rac-N-{3-[5-(2-aminopyrimidin-4-yl)-2-[3-(1-{1-[(3R)-2,6-dioxopiperidin-3-yl]-3-methyl-2-oxo-2,3-dihydro-1H-1,3-benzodiazol-4-yl}piperidine-4-carbonyl)-3-azaspiro[5.5]undecan-9-yl]-1,3-thiazol-4-yl]-2-fluorophenyl}propane-1-sulfonamide]
< 10	> 70	< 10	> 70	< 10	30 to 70	< 10	> 70	–	–	–	–	–	–	–	–	O=C1CC[C@H](c2ccc(N3CCC(CN4CCN(c5cnc(-n6cc(-c7cc(Cl)cc(NS(=O)(=O)N8CCCC8)c7F)c(-c7ccncc7)n6)nc5)CC4)CC3)cc2)C(=O)N1 [Compound 360, N-{5-chloro-3-[1-(5-{4-[(1-{4-[(3R)-2,6-dioxopiperidin-3-yl]phenyl}piperidin-4-yl)methyl]piperazin-1-yl}pyrimidin-2-yl)-3-(pyridin-4-yl)-1H-pyrazol-4-yl]-2-fluorophenyl}pyrrolidine-1-sulfonamide]
–	–	–	–	–	–	–	–	< 10	> 70	10 to 50	30 to 70	> 500	< 30	< 10	30 to 70	CCCS(=O)(=O)Nc1cccc(-c2nc(C3CCC4(CC3)CN(C(=O)C3CCN(c5ccc6c(c5)C(=O)N(C5CCC(=O)NC5=O)C6=O)CC3)C4)sc2-c2ccnc(N)n2)c1F (racemic) [Compound 244, Rac-N-{3-[5-(2-aminopyrimidin-4-yl)-2-[2-(1-{2-[(3R)-2,6-dioxopiperidin-3-yl]-1,3-dioxo-2,3-dihydro-1H-isoindol-5-yl}piperidine-4-carbonyl)-2-azaspiro[3.5]nonan-7-yl]-1,3-thiazol-4-yl]-2-fluorophenyl}propane-1-sulfonamide]
< 10	> 70	< 10	> 70	< 10	> 70	< 10	> 70	–	–	–	–	–	–	–	–	O=C1CC[C@H](c2ccc(N3CCC(CN4CCN(c5ccc(-n6cc(-c7cc(Cl)cc(NS(=O)(=O)N8CC[C@@H](F)C8)c7F)c(-c7ccncc7)n6)cc5)CC4)CC3)cc2)C(=O)N1 [Compound 291, (3R)—N-{5-chloro-3-[1-(4-{4-[(1-{4-[(3R)-2,6-dioxopiperidin-3-yl]phenyl}piperidin-4-yl)methyl]piperazin-1-yl}phenyl)-3-(pyridin-4-yl)-1H-pyrazol-4-yl]-2-fluorophenyl}-3-fluoropyrrolidine-1-sulfonamide]
–	–	–	–	–	–	–	–	10 to 50	> 70	10 to 50	30 to 70	> 500	30 to 70	10 to 50	30 to 70	CCCS(=O)(=O)Nc1cccc(-c2cn(-c3ccc(N4CCN(CC5CCN(c6ccc(C7CCC(=O)NC7=O)cc6F)CC5)CC4)cc3)nc2-c2ccncc2)c1F (racemic) [Compound 18, Rac-N-{3-[1-(4-{4-[(1-{4-[(3R)-2,6-dioxopiperidin-3-yl]-2-fluorophenyl}piperidin-4-yl)methyl]piperazin-1-yl}phenyl)-3-(pyridin-4-yl)-1H-pyrazol-4-yl]-2-fluorophenyl}propane-1-sulfonamide]
–	–	–	–	–	–	–	–	< 10	30 to 70	> 500	< 30	> 500	< 30	> 500	< 30	CCCS(=O)(=O)Nc1cccc(-c2nc(C(C)(C)C)sc2-c2ccnc(Nc3cnn(C4CCN(C(=O)[C@H]5CC[C@H](Oc6ccc(C7CCC(=O)NC7=O)cc6)CC5)CC4)c3)n2)c1F (mixture of isomers) [Compound 110, N-[3-(2-tert-butyl-5-{2-[(1-{1-[(1r,4r)-4-{4-[(3RS)-2,6-dioxopiperidin-3-yl]phenoxy}cyclohexanecarbonyl]piperidin-4-yl}-1H-pyrazol-4-yl)amino]pyrimidin-4-yl}-1,3-thiazol-4-yl)-2-fluorophenyl]propane-1-sulfonamide]
